Experimental data: the NIST ThermoML archive (doi:10.1016/j.jct.2014.05.020)

Assay: excess molar enthalpy (molar enthalpy of mixing); xn = mol fraction of the nth substance listed
Conditions: Liquid, Flow calorimetry

C1CCCCC1 [cyclohexane] + c1ccccc1
excess molar enthalpy [kcal/mol]
Conditions	423.2 K	473.2 K	498.2 K
5000 kPa, x2 = 0.1189	–	0.0453	0.0447
5000 kPa, x2 = 0.1765	–	0.0633	0.0625
5000 kPa, x2 = 0.233	–	0.0777	0.0774
5000 kPa, x2 = 0.3424	–	0.0989	0.0984
5000 kPa, x2 = 0.4475	–	0.11	0.109
5000 kPa, x2 = 0.5485	–	0.111	0.11
5000 kPa, x2 = 0.6457	–	0.103	0.102
5000 kPa, x2 = 0.7392	–	0.0873	0.0863
5000 kPa, x2 = 0.8293	–	0.0633	0.0618
5000 kPa, x2 = 0.8732	–	0.0486	0.0465
5000 kPa, x2 = 0.9162	–	0.0332	0.0295
5000 kPa, x2 = 0.9585	–	0.0184	–
15000 kPa, x2 = 0.1188	–	0.0434	0.0418
15000 kPa, x2 = 0.1763	–	0.0605	0.0582
15000 kPa, x2 = 0.2327	–	0.075	0.0716
15000 kPa, x2 = 0.3421	–	0.0956	0.091
15000 kPa, x2 = 0.4471	–	0.106	0.101
15000 kPa, x2 = 0.5482	–	0.107	0.102
15000 kPa, x2 = 0.6454	–	0.1	0.0943
15000 kPa, x2 = 0.7389	–	0.0848	0.0791
15000 kPa, x2 = 0.8291	–	0.0615	0.0565
15000 kPa, x2 = 0.873	–	0.047	0.042
15000 kPa, x2 = 0.9161	–	0.0316	–
15000 kPa, x2 = 0.9584	–	0.0173	–
25000 kPa, x2 = 0.1187	–	0.042	–
25000 kPa, x2 = 0.1762	–	0.0588	–
25000 kPa, x2 = 0.2325	–	0.0729	–
25000 kPa, x2 = 0.3418	–	0.0929	–
25000 kPa, x2 = 0.4469	–	0.103	–
25000 kPa, x2 = 0.5479	–	0.104	–
25000 kPa, x2 = 0.6451	–	0.0968	–
25000 kPa, x2 = 0.7388	–	0.0815	–
25000 kPa, x2 = 0.829	0.0735	0.0584	–
25000 kPa, x2 = 0.8729	0.0576	0.0442	–
25000 kPa, x2 = 0.916	0.0394	0.0288	–
25000 kPa, x2 = 0.9584	0.0193	0.0149	–
